We go through 11 compounds from patent publication US4239903A, “2-Aminotetralin derivatives and process for producing the same” (priority 1977, dated 1980).

Structures can show the parent of a compound that is named as a salt. Where two headings read alike, the source gives them in different places. Bounds are passed on as bounds.

For data set [1], the system named is colonic motility stimulated by neostigmine. Description: Effect on colonic motility stimulated by neostigmine in rats. The settings on record: Rattus norvegicus, neostigmine-stimulated, dose at which inhibition was observed in 50% of rats. In kind it is in vivo, rat (male STD Wistar strain).
Assay in data set [2]: as above
In kind it is in vivo, rat (male STD Wistar strain). The settings on record: rat, in vivo.

Data set [3] is described as follows: Acute toxicity (LD50) in rats. The settings on record: rat, in vivo.
Data set [4] relates to contractile response of the stomach to vagal stimulation. In words: Contractile response of the stomach to vagal stimulation in anesthetized dogs. The settings on record: for ED50: Canis lupus familiaris, iv, read-out: s.ID50 (dose causing 50% inhibition of the contractile response of the stomach to vagal stimulation); for s.ID50 /c.ID50 (selectivity of antispasmodic effect): i.v., stomach vs colon. In kind it is in vivo, dog (mongrel dogs of both sexes). The source says:
The compounds of the present invention are further characterized by the following property. The compounds of the present invention have selectively stronger antispasmodic effect on the lower part of the digestive tract than on the upper part of the digestive tract, in contrast to conventional anticholinergic antispasmodics which act non-selectively on the digestive tract. The evidence for this selectivity is exemplified by the results shown for representative compounds of the present invention in Table 3. In Table 3, the s.ID50 and c.ID50 values represent the doses causing 50% inhibition of the contractile response of the stomach to vagal stimulation and 50% inhibition of the colonic contraction by pelvic nerve stimulation, respectively, in dogs. These values and their ratios (s.ID50 /c.ID50) indicate that these compounds have higher selectivity than mebeverine, as is clear from Table 3.
The determination of gastric motility was carried out according to the method described in European Journal of Pharmacology, 18, pp. 1-14 (1972).
More specifically mongrel dogs of both sexes weighing 8-15 kg were used. After anesthesizing the animals with 30 mg/kg (i.v.) of pentobarbital, the animals were fixed on their back and a midline incision was made in the upper abdomen. A rubber balloon filled with water was inserted into the stomach through an incision in the greater curvature. Changes in internal pressure of the balloon were recorded on a polygraph via a low pressure transducer. Electric stimulation (rectangular wave, 20 cps in frequency, 1 msec in duration, 8 V in voltage) was applied to the vagus nerve for 10 seconds every three minutes. The percent inhibition of the contractile response of the stomach was calculated from the relationship shown above.

The test system of data set [5] is colonic contraction caused by stimulation of pelvic nerve. In words: Effect on colonic contraction caused by stimulation of pelvic nerve in anesthetized dogs. In kind it is in vivo, dog (mongrel dogs of both sexes). The settings on record: Canis lupus familiaris, iv; for ED50: read-out: c.ID50 (dose causing 50% inhibition of the colonic contraction by pelvic nerve stimulation); for inhibition in vivo at 0.1 mg/kg: read-out: % Inhibition of Colonic Contraction. The source says: The compounds of the present invention are extremely useful as medicines particularly acting on the lower digestive tract. […] N-Ethyl-N-[4-(3,4-dimethoxybenzoyloxy)butyl]-3-(4-methoxyphenyl)-2-propylamine hydrochloride (hereinafter referred to as "mebeverine") known as an antispasmodic for the lower digestive tract was used as a reference.
The values shown in Table 1 were obtained according to the following method [as disclosed in European Journal of Pharmacology, 18, pp. 1-14 (1972)].
Mongrel dogs of both sexes weighing 8-15 kg were used.
After intravenous anesthesizing with pentobarbital in a dose of 30 mg/kg, the animals were fixed on their back and subjected to ventrotomy along the midline of the lower abdomen. After a rubber balloon filled with water was inserted into the descending colon via the anus, 100 μg/kg of each compound was injected intravenously and changes in the internal pressure of the balloon were recorded on a polygraph through a low pressure transducer. Electric stimulation (rectangular wave, 50 cps in frequency, 1 msec in duration, 4 V in voltage) was applied to the pelvic nerve for 5 seconds every three minutes. The percent inhibition of the colonic contraction was calculated according to the following relationship. [formula]
c.ID50 values were determined by the same method as was used for Table 1.

The mark [6] stands for this setting: 100 μg/kg, i.v., pelvic nerve stimulation, anesthetized dogs.

As to `CCN(CCCCCCOC(=O)c1ccc(OC)c(OC)c1)C1CCc2cc(OC)ccc2C1.Cl` (stereo not drawn) [Compound D, N-Ethyl-N-[6-(3,4-dimethoxybenzoyloxy)hexyl]-6-methoxy-1,2,3,4-tetrahydro-2-naphthylamine hydrochloride], the ED50 in data set [1] (iv) turned out to be 0.046 mg/kg; in data set [1] (po), 5.5 mg/kg; in data set [4] (dogs), 0.614 mg/kg; in data set [5] (dogs), 0.083 mg/kg. Further, the figures for the safety margin (LD50/ED50) in data set [2] (iv) and in data set [2] (po) were 767 and 515, respectively. Besides, the results for the 50% lethal dose (LD50) in data set [3] (iv) and in data set [3] (po) were 35.3 mg/kg and 2830 mg/kg, respectively. Also, the “s.ID50 /c.ID50 (selectivity of antispasmodic effect)” value in data set [4] (dogs) was 7.40. In data set [5] (setting [6]), the inhibition in vivo at 0.1 mg/kg turned out to be 54.7%.

As for `CCN(CCCCOC(=O)c1ccc(OC)c(OC)c1)C(C)Cc1ccc(OC)cc1.Cl` (stereo not drawn) [Mebeverine, N-Ethyl-N-[4-(3,4-dimethoxybenzoyloxy)butyl]-3-(4-methoxyphenyl)-2-propylamine hydrochloride, reference compound], the ED50 was 0.151 mg/kg in data set [1] (iv), 30 mg/kg in data set [1] (po), 0.823 mg/kg in data set [4] and greater than 0.3 mg/kg in data set [5]. In addition, the values for the 50% lethal dose (LD50) in data set [3] (iv) and in data set [3] (po) were 17.7 mg/kg and 1540 mg/kg, respectively. The “s.ID50 /c.ID50 (selectivity of antispasmodic effect)” value in data set [4] (dogs) is reported as less than 2.74. The inhibition in vivo at 0.1 mg/kg in data set [5] was 22%.

For `CCN(CCCCOC(=O)c1ccc(OC)c(OC)c1)C1CCc2ccc(OC)cc2C1` (stereo not drawn) [Compound H, N-Ethyl-N-[4-(3,4-dimethoxybenzoyloxy)butyl]-7-methoxy-1,2,3,4-tetrahydro-2-naphthylamine hydrochloride], the inhibition in vivo at 0.1 mg/kg in data set [5] (setting [6]) turned out to be 30.9%.

As for `CCN(CCCCOC(=O)c1ccc(OC)c(OC)c1)C1CCc2ccccc2C1` (stereo not drawn) [Compound A, N-Ethyl-N-[4-(3,4-dimethoxybenzoyloxy)butyl]-1,2,3,4-tetrahydro-2-naphthylamine hydrochloride], in data set [5] (setting [6]), the inhibition in vivo at 0.1 mg/kg was found to be 27.9%.

`CCN(CCCCOC(=O)c1ccc(OC)c(OC)c1)C1CCc2cc(OC)ccc2C1.Cl` (stereo not drawn) [Compound C, N-Ethyl-N-[4-(3,4-dimethoxybenzoyloxy)butyl]-6-methoxy-1,2,3,4-tetrahydro-2-naphthylamine hydrochloride]: the ED50 in data set [1] (iv) amounted to 0.169 mg/kg; in data set [1] (po), 14.4 mg/kg. The safety margin (LD50/ED50) in data set [2] (iv) is 114; in data set [2] (po), greater than 139. The LD50 – broadly, the dose expected to kill half of the subjects tested – in data set [3] (iv) was 19.3 mg/kg; in data set [3] (po), greater than 2000 mg/kg. Besides, the inhibition in vivo at 0.1 mg/kg in data set [5] (setting [6]) turned out to be 20%.

In the case of `CCN(CCCCOC(=O)c1ccc(OC)c(OC)c1)C1CCc2cccc(OC)c2C1` (stereo not drawn) [Compound K, N-Ethyl-N-[4-(3,4-dimethoxybenzoyloxy)butyl]-8-methoxy-1,2,3,4-tetrahydro-2-naphthylamine hydrochloride], in data set [5] (setting [6]), the inhibition in vivo at 0.1 mg/kg was found to be 40%.

On to `COc1ccc2c(c1)CCC(N(CCCCOC(=O)c1ccc(OC)c(OC)c1)C(C)C)C2.Cl` (stereo not drawn) [Compound L, N-Isopropyl-N-[4-(3,4-dimethoxybenzoyloxy)butyl]-6-methoxy-1,2,3,4-tetrahydro-2-naphthylamine hydrochloride], for which the ED50 turned out to be 0.173 mg/kg in data set [1] (iv) and 17.3 mg/kg in data set [1] (po). The same compound displayed a safety margin (LD50/ED50) in data set [2] (po) of 89. In addition, the LD50 in data set [3] (po) worked out at 1540 mg/kg.

Consider `CCN(CCCCOC(=O)c1ccc(OC)c(OC)c1)C1CCc2cc(OC)c(OC)cc2C1.Cl` (stereo not drawn) [Compound F, N-Ethyl-N-[4-(3,4-dimethoxybenzoyloxy)butyl]-6,7-dimethoxy-1,2,3,4-tetrahydro-2-naphthylamine hydrochloride], for which the ED50 in data set [1] (iv) came to 0.025 mg/kg; in data set [1] (po), 5.5 mg/kg; in data set [4] (dogs) it was 0.266 mg/kg; in data set [5] (dogs) it was 0.057 mg/kg. The safety margin (LD50/ED50) stood at 648 in data set [2] (iv) and 280 in data set [2] (po). The LD50 turned out to be 16.2 mg/kg in data set [3] (iv) and 1540 mg/kg in data set [3] (po). Also, in data set [4] (dogs), the “s.ID50 /c.ID50 (selectivity of antispasmodic effect)” value was 4.67. For the same compound, the inhibition in vivo at 0.1 mg/kg in data set [5] (setting [6]) stood at 63.8%.

Regarding `CCN(CCCCCCOC(=O)c1ccc(OC)c(OC)c1)C1CCc2ccccc2C1.Cl` (stereo not drawn) [Compound B, N-Ethyl-N-[6-(3,4-dimethoxybenzoyloxy)hexyl]-1,2,3,4-tetrahydro-2-naphthylamine hydrochloride], the ED50 in data set [1] (iv) is 0.086 mg/kg; in data set [1] (po), 5.5 mg/kg. In addition, the values for the safety margin (LD50/ED50) in data set [2] (iv) and in data set [2] (po) were 206 and greater than 364, respectively. The LD50 in data set [3] (iv) is 17.7 mg/kg; in data set [3] (po), greater than 2000 mg/kg. Further, in data set [5] (setting [6]), the inhibition in vivo at 0.1 mg/kg came to 56%.

Turning to `CCCN(CCCCOC(=O)c1ccc(OC)c(OC)c1)C1CCc2cc(OC)ccc2C1.Cl` (stereo not drawn) [Compound E, N-Propyl-N-[4-(3,4-dimethoxybenzoyloxy)butyl]-6-methoxy-1,2,3,4-tetrahydro-2-naphthylamine hydrochloride], the ED50 in data set [1] (iv) was found to be 0.173 mg/kg; in data set [1] (po), 17.3 mg/kg. The safety margin (LD50/ED50) worked out at 129 in data set [2] (iv) and 41 in data set [2] (po). Besides, the LD50 in data set [3] (iv) was determined as 22.3 mg/kg; in data set [3] (po), 707 mg/kg. Also, in data set [5] (setting [6]), the inhibition in vivo at 0.1 mg/kg came out at 22.4%.

As for `CCN(CCCCCCOC(=O)c1ccc(OC)c(OC)c1)C1CCc2cc(OC)c(OC)cc2C1.Cl` (stereo not drawn) [Compound G, N-Ethyl-N-[6-(3,4-dimethoxybenzoyloxy)hexyl]-6,7-dimethoxy-1,2,3,4-tetrahydro-2-naphthylamine hydrochloride], the ED50 in data set [1] (iv) turned out to be 0.02 mg/kg; in data set [1] (po), 1.7 mg/kg. For the same compound, the values for the safety margin (LD50/ED50) in data set [2] (iv) and in data set [2] (po) were 885 and 330, respectively. Besides, the LD50 turned out to be 17.5 mg/kg in data set [3] (iv) and 561 mg/kg in data set [3] (po). Also, the inhibition in vivo at 0.1 mg/kg in data set [5] (setting [6]) came out at 54.2%.
